In patent publication US8729055B2, “Ursolic acid derivative and pharmaceutical composition thereof” (Kaohsiung Medical University, priority 2010, dated 2014):

Key:
[1] = tested on: NTUB1 cells (human bladder cancer cell line); assay: MTT cytotoxicity assay against NTUB1 cells; format: cell-based
Description: In the present embodiment, cell culture and MTT assay is used for cell viability/proliferation. NTUB1, a human bladder cancer cell line, is established from a high-grade bladder cancer. […] The cells are cultured at 37° C. in a humidified atmosphere containing 5% CO2. […] Briefly, the cells are plated at a density of 1800 cells/well in 96-well plates and incubated at 37° C. overnight before drug exposure. Cells are then cultured in the presence of graded concentrations of the test compound with or without various concentrations of cisplatin (Pharmacia & Upjohn, Milan, Italy) at 37° C. for 72 h. At the end of the culture period, 50 μL of MTT (2 mg/mL in PBS) is added to each well and allowed to react for 3 h. Following centrifugation of plates at 1000 g for 10 min, media are removed and 150 μL DMSO are added to each well. The proportions of surviving cells are determined by absorbance spectrometry at 540 nm using […]) microplate reader. The cell viability is expressed as a percentage to the viable cells of control culture condition. The IC50s of each group are calculated by the […] analysis and presented as mean±standard deviation (SD). […] In Table 1, data are presented as mean±SD (n=5). […] The control cells are treated with culture medium containing 0.1% DMSO. Cisplatin is used as a positive control.

accumulation of NO2− = assay: Experiment A: accumulation of NO2− (Griess reaction); format: cell-based, rat; details: inhibition of accumulation of NO2−
Description: (§1) This example illustrates the anti-inflammatory activities of compounds 5, 7-11, 20 and 21. The anti-inflammatory activities of compounds 5, 7-11, 20 and 21 are studied in vitro for their inhibitory effects on chemical mediators released from neutrophils, mast cells or macrophages of rat.
(§2) Please refer to Table 2, which illustrates the inhibitory effects of compounds 5, 7-11, 20 and 21 on the accumulation of NO2^− (Experiment A), superoxide anion formation (n mol/10^6 cells/30 min) from rat neutrophils stimulated with PMA (Experiment B), and the release of β-glucuronidase from rat peritoneal mast cells stimulated with compound 48/80 (Experiment C). In Table 2, when 50% inhibition could not be reached at the highest concentration, the percentage of inhibition at 30 μM is given.
In the Experiment A, Nitric oxide (NO) in the cell medium is determined by the Griess reaction, and N-(3-aminomethyl)benzylamide (1400 W) is used as a positive control.

[2] = tested on: rat peritoneal mast cells stimulated with compound 48/80; assay: Experiment C: release of β-glucuronidase from rat peritoneal mast cells stimulated with compound 48/80; format: cell-based
Description: as §1, §2
In the Experiment C, Heparinized Tyrode's solution is injected into the peritoneal cavity of exsanguinated rat (Sprague-Dawley, 250-300 g). After abdominal massage, cells in the peritoneal fluid are harvested and then separated in 38% bovine serum albumin (BSA) in glucose-free Tyrode's solution. […] Fifteen min after the addition of compound 48/80 ([…]), β-glucuronidase (phenolphthalein-β-glucuronide as substrate, 550 nm) in the supernatant is determined. The total content of β-glucuronidase is measured after treatment of the cell suspension with Triton X-100, and the percentage release is calculated. […]

[3] = tested on: microtubule assembly in NTUB1 cells; assay: Microtubule assembly by indirect immunofluorescence staining in NTUB1 cells; format: cell-based, human; details: 10 nM taxol, FIG. 5(B)
Description: All inhibition of tubulin polymerization has been implicated in G2/M phase cell cycle arrest in various cancer cell lines. Accordingly, whether treatment of cells with 20 μM compound 23 for 48 h affects in vivo microtubular architecture is investigated in the present example. Microtubule assembly is analyzed by indirect immunofluorescence staining using an anti-tubulin antibody (Santa Cruz Biotechnology, Santa Cruz, Calif., USA).
NTUB1 cells plated on coverslips are treated with no compound as control, 10 nM taxol, 50 μM compound 23 for 24 h. After treatment, cells are fixed with 2% formaldehyde/PBS for 20 min, washed with PBS, and cold methanol (−20° C.) for 3 min. After washing with PBS, cells are added anti-α-tubulin monoclonal antibody (Sigma, Co) in PBS and incubated for 3 h at room temperature. Then cells are washed with PBS and reincubated with Rodamine-conjugated secondary antibody (Sigma, Co) in dark room for 1 h at room temperature. After being washed with PBS, coverslips are mounted with 80% glycerol in PBS and examined with Axioskop 2 plus fluorescence microscope.
Please refer to FIGS. 5(A) to 5(C), which are diagrams showing the effects of taxol and compound 23 on microtubule assembly, wherein the cellular microtubules are observed by Axioskop 2 plus fluorescence microscope.

SMILES: C=C(C)[C@@H]1CC[C@]2(C)[C@H](CC=C3[C@@H]4[C@@H](C)[C@H](C)CC[C@]4(C(=O)O)CC[C@]32C)[C@@]1(C)CCC(=O)OC [Compound 21, Methyl 3,4-seco-ursan-4(23), 12-dien-28-oic 3-oat]
- IC50 ([1]; NTUB1 cells, MTT, 72 h, mean±SD (n=5)): > 30 µM
- % of viability at the highest concentration ([1]; NTUB1 cells, given when 50% inhibition not reached at the highest concentration (30 μM)): 62.77%
- cytotoxic activity against NTUB1 cells, in words ([1]; comparison with the parent compound, from Table 1): weakens cytotoxic activities
- IC50 (accumulation of NO2−): 15.6 ± 2.5 µM
- percentage of inhibition at 30 μM, C β-glucuronidase ([2]; 30 μM, given when 50% inhibition not reached): 29.3 ± 2.1%

SMILES: CCN(CC)CCCC(C)Nc1c2ccc(Cl)cc2nc2ccc(OC)cc12 (stereo not shown) [mepacrine, reference compound]
- IC50 ([2]; Mast cell, rat peritoneal mast cells, compound 48/80): 12.4 ± 1.6 µM

SMILES: CC(=O)O[C@H]1C(=O)[C@@]2(C)[C@H]([C@H](OC(=O)c3ccccc3)[C@]3(O)C[C@H](OC(=O)[C@H](O)[C@@H](NC(=O)c4ccccc4)c4ccccc4)C(C)=C1C3(C)C)[C@]1(OC(C)=O)CO[C@@H]1C[C@@H]2O [taxol]
- effect on microtubule assembly [3]: distinctive microtubule bundle
